Measurements published in patent US20020137929A1, “1 - (3-heterocyclylphenyl) isothiourea, -isourea, -guanidine and -amidine herbicidal agents” (Intellectual Property Department, BASF Aktiengesellschaft, priority 1998, published 2002).

How the values were obtained:
ECHCG (Barnyardgrass) = experiment: Preemergence herbicidal evaluation; assay type: in vivo, Echinochloa crus-galli; details: preemergence, rated 4-5 weeks after treatment, 0-9 scale
In short: (§1)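 Scores (0–9) reflect visual comparison with control plants for stand, vigor, malformation, size and chlorosis. Compound was applied to the soil after sowing, before emergence, as an aqueous acetone spray (about 0.0156–0.500 kg/ha), and cups were kept in a greenhouse for 4–5 weeks.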

[1] = tested on: SAGPY (Arrowhead (Pygmaea)); experiment: Postemergence weed control under flooded paddy conditions; assay type: in vivo, Sagittaria pygmaea; details: postemergence weeds, rated 3 to 4 weeks after treatment
In short: (§2)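 With weeds 3 to 5 cm tall and rice at the 1.5 to 2.5 leaf stage, containers were flooded and water held 1.5 to 3 cm above soil. Compounds in 50/50 v/v aqueous/acetone went into the flood water at about 0.0313 to 0.500 kg/ha a.i. Effects were visually rated 0–9 against controls after three to four weeks in the greenhouse.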

[2] = tested on: ECHORC (Watergrass (Calif.)); experiment: as above; assay type: in vivo, Echinochloa oryzoides; details: postemergence weeds, rated 3 to 4 weeks after treatment
In short: as §2

SETVI (Foxtail, Green) [3] = experiment: Preemergence herbicidal evaluation; assay type: in vivo, Setaria viridis; details: preemergence, rated 4-5 weeks after treatment, 0-9 scale
In short: as §1

ABUTH (Velvetleaf) = experiment: Preemergence herbicidal evaluation; assay type: in vivo, Abutilon theophrasti; details: preemergence, rated 4-5 weeks after treatment, 0-9 scale
In short: as §1

GALAP (Galium) = experiment: Postemergence herbicidal evaluation; assay type: in vivo, Galium aparine; details: postemergence
In short: (§3)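 Scores (0–9) reflect plant stand, vigor, malformation, size, chlorosis and general appearance relative to control, read 4 to 5 weeks after treatment and averaged where tests were repeated. Application: about 0.0156–0.500 kg/ha sprayed at 40 psi onto two-week seedlings.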

ZEAMX (Corn, Field) = experiment: Preemergence herbicidal evaluation; assay type: in vivo, Zea mays; details: preemergence, rated 4-5 weeks after treatment, 0-9 scale
In short: as §1

[4] = tested on: ECHORC (Watergrass (Calif.)); experiment: Preemergence weed control under flooded paddy conditions; assay type: in vivo, Echinochloa oryzoides; details: rated 3-4 weeks after treatment
In short: (§4)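 Seeds or propagules sown in silt loam kept flooded 1.5-3 cm; compounds in 50/50 acetone/water pipetted into flood water at about 0.0313 to 0.500 kg/ha. Greenhouse; visual 0-9 rating versus untreated control 3-4 weeks after treatment.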

[5] = tested on: TRZAWR (Wheat, Winter, cv Riband); experiment: Postemergence herbicidal evaluation; assay type: in vivo, Triticum aestivum; details: postemergence
In short: as §3

[6] = tested on: IPOHE (Morningglory, Ivyleaf); experiment: Preemergence herbicidal evaluation; assay type: in vivo, Ipomoea hederacea; details: preemergence, rated 4-5 weeks after treatment, 0-9 scale
In short: as §1

CYPIR (Rice Flatsedge) = experiment: Preemergence weed control under flooded paddy conditions; assay type: in vivo, Cyperus iria; details: rated 3-4 weeks after treatment
In short: as §4

SETVI (Foxtail, Green) [7] = experiment: Postemergence herbicidal evaluation; assay type: in vivo, Setaria viridis; details: postemergence
In short: as §3

[8] = tested on: IPOHE (Morningglory, Ivyleaf); experiment: Postemergence herbicidal evaluation; assay type: in vivo, Ipomoea hederacea; details: postemergence
In short: as §3

Compound: COC(=O)C1(N2C(=O)CSC2=Nc2cc(-n3c(=O)cc(C(F)(F)F)n(C)c3=O)c(F)cc2Cl)CCCCC1 [Compound 81, Methyl 1-{2-{{2-chloro-5-[3,6-dihydro-3-methyl-2,6-dioxo-4-(trifluoromethyl)-1(2H)-pyrimidinyl]-4-fluorophenyl}imino}-4-oxo-3-thiazolidinyl}-cyclohexanecarboxylate]
- ECHCG rating (ECHCG (Barnyardgrass); 0.0313 kg/ha): 0.0
- ECHCG rating (ECHCG (Barnyardgrass); 0.0625 kg/ha): 0.0
- ECHCG rating (ECHCG (Barnyardgrass); 0.1250 kg/ha): 0.0
- ECHCG rating (ECHCG (Barnyardgrass); 0.2500 kg/ha): 1.0
- Herbicidal rating SAGPY ([1]; Rate 0.0625 kg/ha): 0.0
- Herbicidal rating SAGPY ([1]; Rate 0.1250 kg/ha): 0.0
- Herbicidal rating SAGPY ([1]; Rate 0.2500 kg/ha): 0.0
- Herbicidal rating ECHORC ([2]; Rate 0.0625 kg/ha): 0.0
- Herbicidal rating ECHORC ([2]; Rate 0.1250 kg/ha): 3.0
- Herbicidal rating ECHORC ([2]; Rate 0.2500 kg/ha): 3.0
- SETVI rating (SETVI (Foxtail, Green) [3]; 0.0313 kg/ha): 0.0
- SETVI rating (SETVI (Foxtail, Green) [3]; 0.0625 kg/ha): 1.0
- SETVI rating (SETVI (Foxtail, Green) [3]; 0.1250 kg/ha): 0.0
- SETVI rating (SETVI (Foxtail, Green) [3]; 0.2500 kg/ha): 3.0
- ABUTH rating (ABUTH (Velvetleaf); 0.0313 kg/ha): 9.0
- ABUTH rating (ABUTH (Velvetleaf); 0.0625 kg/ha): 9.0
- ABUTH rating (ABUTH (Velvetleaf); 0.1250 kg/ha): 9.0
- ABUTH rating (ABUTH (Velvetleaf); 0.2500 kg/ha): 9.0
- GALAP herbicidal rating (GALAP (Galium); rate 0.0158 kg/ha): 1.0
- GALAP herbicidal rating (GALAP (Galium); rate 0.0315 kg/ha): 5.0
- GALAP herbicidal rating (GALAP (Galium); rate 0.0630 kg/ha): 4.0
- ZEAMX rating (ZEAMX (Corn, Field); 0.0313 kg/ha): 0.0
- ZEAMX rating (ZEAMX (Corn, Field); 0.0625 kg/ha): 2.0
- ZEAMX rating (ZEAMX (Corn, Field); 0.1250 kg/ha): 2.0
- ZEAMX rating (ZEAMX (Corn, Field); 0.2500 kg/ha): 2.0
- ECHORC herbicidal effect rating ([4]; 0.0625 kg/ha): 0.0
- ECHORC herbicidal effect rating ([4]; 0.1250 kg/ha): 3.0
- ECHORC herbicidal effect rating ([4]; 0.2500 kg/ha): 3.0
- TRZAWR herbicidal rating ([5]; rate 0.0158 kg/ha): 4.5
- TRZAWR herbicidal rating ([5]; rate 0.0315 kg/ha): 5.0
- TRZAWR herbicidal rating ([5]; rate 0.0630 kg/ha): 6.0
- IPOHE rating ([6]; 0.0313 kg/ha): 0.0
- IPOHE rating ([6]; 0.1250 kg/ha): 1.0
- IPOHE rating ([6]; 0.2500 kg/ha): 9.0
- CYPIR herbicidal effect rating (CYPIR (Rice Flatsedge); 0.0625 kg/ha): 4.0
- CYPIR herbicidal effect rating (CYPIR (Rice Flatsedge); 0.1250 kg/ha): 5.0
- CYPIR herbicidal effect rating (CYPIR (Rice Flatsedge); 0.2500 kg/ha): 5.0
- SETVI herbicidal rating (SETVI (Foxtail, Green) [7]; rate 0.0158 kg/ha): 1.0
- SETVI herbicidal rating (SETVI (Foxtail, Green) [7]; rate 0.0315 kg/ha): 1.0
- SETVI herbicidal rating (SETVI (Foxtail, Green) [7]; rate 0.0630 kg/ha): 9.0
- IPOHE herbicidal rating ([8]; rate 0.0158 kg/ha): 9.0
- IPOHE herbicidal rating ([8]; rate 0.0315 kg/ha): 9.0
- IPOHE herbicidal rating ([8]; rate 0.0630 kg/ha): 9.0
